Data published in article PMC11372264, “^61Cu-PSMA–Targeted PET for Prostate Cancer: From Radiotracer Development to First-in-Human Imaging” (Journal of Nuclear Medicine, 2024).
Several values for one entry are separate records, joined by “and”; a condition that tells them apart may be missing. Equal entries are not always repeated.

Columns and labels:
[1] = Stability of radiotracer at room temperature (radiochemical purity over time); format: physicochemical; conditions: good manufacturing practice grade for human use, 20 MBq/nmol
Procedure: [^61Cu]Cu-DOTAGA-PSMA-I&T and [^61Cu]Cu-NODAGA-PSMA-I&T were synthesized with radiolabeling yield of more than 98% and radiochemical purity of more than 97% (radio–high-performance liquid chromatography analysis) at an apparent molar activity of 24 MBq/nmol. Thus, no purification was required after labeling. Although [^61Cu]Cu-DOTAGA-PSMA-I&T needed elevated temperature (95°C) and 15 min of reaction time, [^61Cu]Cu-NODAGA-PSMA-I&T was synthesized at room temperature within 5 min. After 4 h at room temperature, the radiochemical purity of [^61Cu]Cu-DOTAGA-PSMA-I&T dropped to approximately 90%, whereas it remained stable (∼97%) for [^61Cu]Cu-NODAGA-PSMA-I&T. All analytic data and quality control results are provided in Supplemental Figures 1 and 2 and in Supplemental Tables 1 and 2.
With inexpensive ^natNi as the starting material, highly pure ^61Cu could be produced with radionuclidic purity exceeding 99.99% at 12 h after synthesis (details on the production will be published elsewhere). The preparation of [^61Cu]Cu-NODAGA-PSMA-I&T was performed in widely used buffers at room temperature within 5 min. […] High labeling yields and suitable molar activities for clinical use eliminate the need for any purification step after labeling. […]

LNCaP cells = assay: Cellular uptake and distribution (surface-bound, internalized) in LNCaP cells; format: cell-based; conditions: 1 h, 37°C
Procedure: The lipophilicity of [^61Cu]Cu-DOTAGA-PSMA-I&T and [^61Cu]Cu-NODAGA-PSMA-I&T was assessed by determining the distribution coefficient in a 1:1 mixture of 1-octanol–to–phosphate-buffered saline at pH 7.4, in comparison with all reference radiotracers. Inhibitory concentration of 50% (IC50) was assessed by competition binding on lymph node carcinoma of the prostate (LNCaP) using ((S)-1-carboxy-5-(4-(-^125I-iodo-benzamido)pentyl)carbamoyl)-L-glutamic acid as the reference radioligand. Cellular uptake and distribution were assessed in LNCaP cells at 5, 15, 30, 60, and 120 min after exposure to the radioligand at 37°C, either alone or in the presence of 10 µM 2-(phosphonomethyl)pentanedioic acid to distinguish between specific and nonspecific uptake.
FIGURE 1. In vitro assessment in LNCaP cells after 1 h at 37°C. (A) Competition binding activity curves of ^natCu-DOTAGA-PSMA-I&T, ^natCu-NODAGA-PSMA-I&T, and ^natGa-PSMA-11 on LNCaP cells after 1 h of incubation on ice, using ((S)-1-carboxy-5-(4-(-^125I-iodo-benzamido)pentyl)carbamoyl)-L-glutamic acid ([^125I-BA]KuE) at concentration of 0.2 nM as reference radioligand. (B) Cellular uptake (surface-bound + internalized). Cell surface–bound and internalized fractions are indicated. Results represent mean ± SD of specific (total − nonspecific) uptake from minimum of 2 separate experiments, each in triplicate.

[2] = system: patient with metastatic prostate cancer; assay: First-in-human PET/CT imaging; format: in vivo; conditions: 105 MBq/32 µg i.v., 3 h after tracer administration
Procedure: [^61Cu]Cu-NODAGA-PSMA-I&T was produced at the Nuclear Medicine Department of the Klinikum Rechts der Isar (Technical University of Munich) for human use. It was applied according to §13.2b of the German pharmaceutical law, and the requirement to obtain consent for the retrospective data analysis was waived. The manufacture of the tracer was performed via an automated process through a GE Healthcare FASTlab 2 module. Details on the production and quality controls are described in the supplemental materials. A dose of 105 MBq/32 µg was administered intravenously to a patient with known metastatic prostate cancer before ^177Lu-labeled PSMA radiopharmaceutical therapy. The patient was coinjected with 10 mg of furosemide (Lasix; Sanofi-Aventis). Imaging was performed 3 h after tracer administration on a Biograph Vision PET/CT scanner (Siemens Healthineers). Images were obtained from the skull to mid-thigh and reconstructed into multiplanar PET, CT, and fused PET/CT images. CT was used for attenuation correction.
FIGURE 4. Administration of [^61Cu]Cu-NODAGA-PSMA-I&T, in person with metastatic castration-resistant prostate cancer with disease progression, after abiraterone and docetaxel therapy before ^177Lu-labeled PSMA radiopharmaceutical therapy. Imaging was performed 3 h after tracer administration. […] Patient has also 1 kidney after left nephrectomy.

[3] = Human dosimetry estimates (OLINDA/EXM version 1.0) from mouse biodistribution; conditions: standard adult man phantom; mouse kinetics assumed same as human
Procedure: Additional biodistribution data were generated in healthy BALB/c mice using [^64Cu]Cu-NODAGA-PSMA-I&T at 1, 4, 12, and 24 h after injection and combined with the data of [^61Cu]Cu-NODAGA-PSMA-I&T at 1 and 4 h after injection. Non–decay-corrected biodistribution data for ^61Cu (t1/2, 3.33 h) were used to generate time–activity curves for [^61Cu]Cu-NODAGA-PSMA-I&T. OLINDA/EXM version 1.0 (Vanderbilt University) was used for the dosimetry estimates, as described in the supplemental materials.

## O=C([O-])CN1CCN(CC(=O)[O-])CCN(C(CCC(=O)N[C@H](Cc2ccc(O)c(I)c2)C(=O)N[C@H](Cc2ccccc2)C(=O)N[C@H](CCCCNC(=O)CCCCCCC(=O)NCCCC[C@H](NC(=O)N[C@@H](CCC(=O)O)C(=O)O)C(=O)O)C(=O)O)C(=O)O)CC1.[61Cu+2] (stereo partly drawn) [[^61Cu]Cu-NODAGA-PSMA-I&T, NODAGA-(l-y)fk(sub-KuE)]
[1]
  Time stable at room temperature: up to 9 h
LNCaP cells; specific uptake
  Cellular uptake (surface-bound + internalized): 22.4% ± 3.3%
LNCaP cells; % of applied activity
  Internalized fraction: 11.7 ± 1.6%
  Surface-bound fraction: 10.8 ± 1.8%
[2]
  SUVmax, kidney (right): 57.3
  SUVmax, liver: 6.5
  SUVmax, salivary gland (right parotid gland): 20.5
  SUVmax, tumor lesion left liver lobe: 23.6
  SUVmax, tumor lesion right lower pubic bone: 154.2
  SUVmax, tumor lesion right scapula: 86.4
  SUVmax, tumor lesion sacral bone: 16.5
  SUVmean, kidney (right): 37.9
  SUVmean, liver: 3.4
  SUVmean, salivary gland (right parotid gland): 12.6
  SUVmean, tumor lesion left liver lobe: 11.7
  SUVmean, tumor lesion right lower pubic bone: 83.7
  SUVmean, tumor lesion right scapula: 55.3
  SUVmean, tumor lesion sacral bone: 9.9
[3]
  Effective dose: 0.0142 mSv/MBq and 1.42E−02 mSv/MBq
  Total absorbed dose, men: Adrenals: 8.39E−02 mGy/MBq
  Total absorbed dose, men: Brain: 6.18E−05 mGy/MBq
  Total absorbed dose, men: Gallbladder wall: 2.30E−02 mGy/MBq
  Total absorbed dose, men: Heart wall: 6.94E−03 mGy/MBq
  Total absorbed dose, men: Kidneys: 1.74E+00 mGy/MBq
  Total absorbed dose, men: LLI wall: 4.64E−03 mGy/MBq
  Total absorbed dose, men: Liver: 2.51E−02 mGy/MBq
  Total absorbed dose, men: Lungs: 6.11E−03 mGy/MBq
  Total absorbed dose, men: Muscle: 6.00E−03 mGy/MBq
  Total absorbed dose, men: Osteogenic cells: 5.31E−03 mGy/MBq
  Total absorbed dose, men: Pancreas: 4.83E−02 mGy/MBq
  Total absorbed dose, men: Red marrow: 1.11E−02 mGy/MBq
  Total absorbed dose, men: Skin: 2.90E−03 mGy/MBq
  Total absorbed dose, men: Small intestine: 3.79E−02 mGy/MBq
  Total absorbed dose, men: Spleen: 7.37E−02 mGy/MBq
  Total absorbed dose, men: Stomach wall: 1.71E−02 mGy/MBq
  Total absorbed dose, men: Testes: 5.39E−04 mGy/MBq
  Total absorbed dose, men: Thymus: 1.67E−03 mGy/MBq
  Total absorbed dose, men: Thyroid: 4.99E−04 mGy/MBq
  Total absorbed dose, men: Total body: 1.38E−02 mGy/MBq
  Total absorbed dose, men: ULI wall: 1.43E−02 mGy/MBq
  Total absorbed dose, men: Urinary bladder wall: 2.06E−03 mGy/MBq
